In experiment [1] the target is T1, Proteinase-activated receptor 1 (Homo sapiens) (UniProt P25116).
T1 sequence (whole entry): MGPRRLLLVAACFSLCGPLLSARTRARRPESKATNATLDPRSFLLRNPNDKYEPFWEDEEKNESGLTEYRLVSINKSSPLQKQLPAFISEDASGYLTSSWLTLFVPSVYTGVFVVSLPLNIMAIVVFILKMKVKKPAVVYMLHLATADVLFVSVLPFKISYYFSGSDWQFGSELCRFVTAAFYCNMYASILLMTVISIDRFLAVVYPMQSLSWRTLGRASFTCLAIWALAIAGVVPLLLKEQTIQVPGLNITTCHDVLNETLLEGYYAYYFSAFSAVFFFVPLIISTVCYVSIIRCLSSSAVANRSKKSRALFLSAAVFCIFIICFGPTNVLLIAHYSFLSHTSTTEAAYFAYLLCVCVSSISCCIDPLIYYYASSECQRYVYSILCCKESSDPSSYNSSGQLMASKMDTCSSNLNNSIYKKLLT
Nature of the experiment: Activation of PAR-1 in human platelet-rich plasma assessed as induction of platelet aggregation by turbidimetric method relative to S/Phe/FLLRNP. The class given is cell-based.

The target of experiment [2] is T2, Proteinase-activated receptor 1 (Homo sapiens, UniProt P25116).
T2 sequence (P25116 whole entry): T1 sequence (whole entry)
As to the kind of experiment: Activation of PAR-1 in human platelet-rich plasma assessed as induction of platelet aggregation by turbidimetric method.

For experiment [3], the species on record is Homo sapiens. Nature of the experiment: Induction of platelet aggregation in human platelet-rich plasma assessed as decrease in turbidity by turbidimetric method. Type of experiment: functional.
The species entered for experiment [4] is Homo sapiens. Nature of the experiment: Induction of platelet aggregation in human platelet-rich plasma assessed as increase in transmissivity by turbidimetric method. Type of experiment: functional.

Numbered stars: 1 amine (or outer) side, 2 acyl side, 3 side chain; on linkers, the order of the positions; unused ones are H or OH. Square brackets hold non-standard residues; d marks the D form. Peptide text beside a SMILES is read from it. Phe(3,4,5-F3) = N[C@@H](Cc1cc(F)c(F)c(F)c1)C(=O)O; Phe(F5) = N[C@@H](Cc1c(F)c(F)c(F)c(F)c1F)C(=O)O; X1 = O=C([C@H](Cc1c(F)c(F)cc(F)c1F)N[*:1])[*:2]; X2 = O=C([C@H](Cc1c(F)cc(F)c(F)c1F)N[*:1])[*:2]; X3 = O=C([C@H](Cc1cc(F)c(F)c(F)c1F)N[*:1])[*:2]; Phe(3,5-F2) = N[C@@H](Cc1cc(F)cc(F)c1)C(=O)O; X4 = O=C([C@H](Cc1ccc(F)c(F)c1F)N[*:1])[*:2]; X5 = O=C([C@H](Cc1cc(F)c(F)cc1F)N[*:1])[*:2]; X7 = O=C([C@H](Cc1c(F)cc(F)cc1F)N[*:1])[*:2]; Phe(2,6-F2) = N[C@@H](Cc1c(F)cccc1F)C(=O)O; X6 = O=C([C@H](Cc1cc(F)ccc1F)N[*:1])[*:2]; Phe(4-F) = N[C@@H](Cc1ccc(F)cc1)C(=O)O; Cha = N[C@@H](CC1CCCCC1)C(=O)O

For `CC(C)C[C@H](NC(=O)[C@H](CC(C)C)NC(=O)[C@H](CC1CCCCC1)NC(=O)[C@@H](N)CO)C(=O)N[C@@H](CCCNC(=N)N)C(=O)N[C@@H](CC(N)=O)C(=O)N1CCC[C@H]1C(N)=O` (H-S[Cha]LLRNP-NH2), the Activity in experiment [1] turned out to be 3%. Still for that read-out and setting: then `CC(C)C[C@H](NC(=O)[C@H](Cc1c(F)cccc1F)NC(=O)[C@@H](N)CO)C(=O)N[C@@H](CC(C)C)C(=O)N[C@@H](CC(N)=O)C(=O)N1CCC[C@H]1C(N)=O` (H-S[Phe(2,6-F2)]LLNP-NH2), with 11%. With `CC(C)C[C@H](NC(=O)[C@H](Cc1cc(F)c(F)c(F)c1)NC(=O)[C@@H](N)CO)C(=O)N[C@@H](CC(C)C)C(=O)N[C@@H](CC(N)=O)C(=O)N1CCC[C@H]1C(N)=O` (H-S[Phe(3,4,5-F3)]LLNP-NH2), the Activity in experiment [1] came to 16%. Consider `CC(C)C[C@H](NC(=O)[C@H](Cc1cc(F)cc(F)c1)NC(=O)[C@@H](N)CO)C(=O)N[C@@H](CC(C)C)C(=O)N[C@@H](CC(N)=O)C(=O)N1CCC[C@H]1C(N)=O` (H-S[Phe(3,5-F2)]LLNP-NH2), for which, in experiment [1], the Activity is 11%.

With `CC(C)C[C@H](NC(=O)[C@H](Cc1ccc(F)cc1)NC(=O)[C@@H](N)CO)C(=O)N[C@@H](CC(C)C)C(=O)N[C@@H](CC(N)=O)C(=O)N1CCC[C@H]1C(N)=O` (H-S[Phe(4-F)]LLNP-NH2), the Activity in experiment [1] (filed as activator) was found to be 250%. On to `CC(C)C[C@H](NC(=O)[C@H](Cc1c(F)c(F)c(F)c(F)c1F)NC(=O)[C@@H](N)CO)C(=O)N[C@@H](CC(C)C)C(=O)N[C@@H](CC(N)=O)C(=O)N1CCC[C@H]1C(N)=O` (H-S[Phe(F5)]LLNP-NH2), for which the Activity in experiment [1] came to 0%. Take `CC(C)C[C@H](NC(=O)[C@H](CC(C)C)NC(=O)[C@H](Cc1c(F)c(F)c(F)c(F)c1F)NC(=O)[C@@H](N)CO)C(=O)N[C@@H](CCCNC(=N)N)C(=O)N[C@@H](CC(N)=O)C(=O)N1CCC[C@H]1C(N)=O` (H-S[Phe(F5)]LLRNP-NH2): the EC50 result in experiment [2] was “Not Active”. The Activity in experiment [1] came out at 0%. In the same order, the values of `CC(C)C[C@H](NC(=O)[C@H](CC(C)C)NC(=O)[C@H](Cc1c(F)c(F)cc(F)c1F)NC(=O)[C@@H](N)CO)C(=O)N[C@@H](CCCNC(=N)N)C(=O)N[C@@H](CC(N)=O)C(=O)N1CCC[C@H]1C(N)=O` (H-S[X1]LLRNP-NH2) are “Not Active” and 0%. With `CC(C)C[C@H](NC(=O)[C@H](Cc1c(F)cc(F)c(F)c1F)NC(=O)[C@@H](N)CO)C(=O)N[C@@H](CC(C)C)C(=O)N[C@@H](CC(N)=O)C(=O)N1CCC[C@H]1C(N)=O` (H-S[X2]LLNP-NH2), the Activity in experiment [1] was found to be 34%. The same measure, in the same setting: the same measure for `CC(C)C[C@H](NC(=O)[C@H](CC(C)C)NC(=O)[C@H](Cc1c(F)cc(F)c(F)c1F)NC(=O)[C@@H](N)CO)C(=O)N[C@@H](CCCNC(=N)N)C(=O)N[C@@H](CC(N)=O)C(=O)N1CCC[C@H]1C(N)=O` (H-S[X2]LLRNP-NH2): 34%; for `CC(C)C[C@H](NC(=O)[C@H](Cc1cc(F)c(F)c(F)c1F)NC(=O)[C@@H](N)CO)C(=O)N[C@@H](CC(C)C)C(=O)N[C@@H](CC(N)=O)C(=O)N1CCC[C@H]1C(N)=O` (H-S[X3]LLNP-NH2): 6%.

With `CC(C)C[C@H](NC(=O)[C@H](CC(C)C)NC(=O)[C@H](Cc1cc(F)c(F)c(F)c1F)NC(=O)[C@@H](N)CO)C(=O)N[C@@H](CCCNC(=N)N)C(=O)N[C@@H](CC(N)=O)C(=O)N1CCC[C@H]1C(N)=O` (H-S[X3]LLRNP-NH2), the Activity in experiment [1] amounted to 6%. As for `CC(C)C[C@H](NC(=O)[C@H](Cc1ccc(F)c(F)c1F)NC(=O)[C@@H](N)CO)C(=O)N[C@@H](CC(C)C)C(=O)N[C@@H](CC(N)=O)C(=O)N1CCC[C@H]1C(N)=O` (H-S[X4]LLNP-NH2), the Activity in experiment [1] (filed as activator) was found to be 98%. `CC(C)C[C@H](NC(=O)[C@H](Cc1cc(F)c(F)cc1F)NC(=O)[C@@H](N)CO)C(=O)N[C@@H](CC(C)C)C(=O)N[C@@H](CC(N)=O)C(=O)N1CCC[C@H]1C(N)=O` (H-S[X5]LLNP-NH2): in experiment [1] (filed as activator), the Activity amounted to 180%.

On to `CC(C)C[C@H](NC(=O)[C@H](Cc1cc(F)ccc1F)NC(=O)[C@@H](N)CO)C(=O)N[C@@H](CC(C)C)C(=O)N[C@@H](CC(N)=O)C(=O)N1CCC[C@H]1C(N)=O` (H-S[X6]LLNP-NH2), for which, in experiment [1], the Activity was found to be 35%. Consider `CC(C)C[C@H](NC(=O)[C@H](Cc1c(F)cc(F)cc1F)NC(=O)[C@@H](N)CO)C(=O)N[C@@H](CC(C)C)C(=O)N[C@@H](CC(N)=O)C(=O)N1CCC[C@H]1C(N)=O` (H-S[X7]LLNP-NH2), for which the Activity in experiment [1] (filed as activator) is 49%. For H-SALLRNP-NH2, the EC50 result in experiment [2] is given as “Not Active”. Further, the Activity in experiment [1] amounted to 0%. As for H-SFLLNP-NH2, the Activity in experiment [1] (filed as activator) amounted to 100%. Regarding H-SFLLRNP-NH2, the values for the Activity entry (in the experiment listed under Homo sapiens [3]; in the experiment filed under Homo sapiens [4]; in experiment [1] (filed as activator)) were “Dose-dependent effect”, “Dose-dependent effect” and 100%, respectively.

The values above are taken from ChEMBL document CHEMBL5055673, “Direct evidence of edge-to-face CH/π interaction for PAR-1 thrombin receptor activation” (Bioorg Med Chem, 2021).
